Patent US6906170B1 (Yeda Research and Development Co. Ltd., priority 1998, dated 2005)
No end group written: not given here.

Columns and labels:
HT-29 cells = test: Spontaneous IL-8 secretion from intestinal epithelial cells (ELISA); assay type: cell-based, human; set-up: IL-8 secretion Average O.D.: scale not given here; settings: peptide 1 nM, 24 h at 37° C.; for IL-8 secretion Average O.D.: ELISA O.D. at 405 nm, medium alone 488 ± 8.5, background 71 ± 1.4; for IL-8 secretion % inhibition: spontaneous secretion
Method: Human colonic epithelial cell lines HT-29 (ATCC HTB38) and Caco-2 (ATCC […]) were obtained from the American Type Culture Collection (ATTC, Rockville, Md.). Cells were maintained in culture medium (DMEM supplemented with 10% cosmic calf serum (CSS), 2 mM glutamine, 100 U/ml penicillin, and 0.1 mg/ml streptomycin), at 37° C. and atmosphere of 5%, CO2. Cell viability was assessed using the standard MTT method.
Spontaneous or cytokine-induced secretion of IL-8 or IL-1β from intestinal epithelial cell. Test cells (HT-29 or Caco-2) were grown as confluent monolayers in 24-well tissue culture plates. […] When TNF-α was used, the peptides were added to the cells 1 hour prior to the addition of TNF-α. Following culture, the supernatants were harvested and analyzed for IL-8 or IL-1β secretion by ELISA using commercially available kits for IL-8 (Pharmingen) and IL-1β (Genzyme), according to the manufacturers' protocols.
The results in Table 1 show the O.D. readings of the ELISA assay (at 405 nm) as well as the percentage of inhibition of IL-8 secretion.

human T cells [1] = test: IL-2-induced T cell adhesion to fibronectin (FN); assay type: cell-based; settings: for inhibition of adhesion of IL-2-activated T cells to FN: 30 min at 37° C., dose range
Method: (§1) T cell adhesion assays. Human T cells were purified from the peripheral blood of healthy donors, and T cell adhesion to immobilized protein substrates was examined as follows: Human leukocytes were isolated on a Ficoll gradient, washed, and incubated (2 h, 37° C., 7.5% CO2, humidified atmosphere) on petri dishes. The non-adherent cells were then collected and incubated (1 h, 37° C., 7.5% CO2, humidified atmosphere) on nylon wool columns (Novamed Ltd., Jerusalem, Israel). Unbound cells were eluted from the columns by extensive washings. The resulting cell population was always >92% T cells. […] After 4-6 h at 37° C., the wells were washed and ^51[Cr]-labeled T cells were added to the wells, 10^5 cells/100 μl of adhesion medium (RPMI-1640 supplemented with 0.1% BSA, 1% sodium pyruvate, 1% HEPES buffer). The microtiter plates containing the cells were incubated (30 min, 37° C.) in a humidified, 7.5% CO2 atmosphere, and then washed. The adherent cells were lysed, and the resulting supernatants were removed and analyzed in a γ-counter. For each experimental group, the results were expressed as the mean percentage ±SD of bound T cells from quadruplicate wells.
The effect of synthetic peptides, with putative amino acid compositions corresponding to fractions 2 and 8, on IL-2-induced T cell adhesion to FN. […] These three peptides were synthesized, and their effects on IL-2-induced T cell adhesion to FN were studied. […] The inhibitory dose-response curves of Ile-Val-Leu and […](SEQ ID NO:1) are similar to those of the HPLC fractions 2 and 8, respectively, from which they were derived. […]

human T cells [2] = test: Induction of T cell adhesion to ECM, FN, LN and CO-IV; assay type: cell-based; settings: T cells activated only with PMA; not shown
human T cells [3] = test: IL-2-induced T cell adhesion to LN, CO-IV and FN after peptide pre-treatment; assay type: cell-based; settings: pre-exposed to peptide 10 pg/ml, then IL-2 10 U/ml
Method: The T cells were then seeded onto microtiter wells that were pre-coated (1 μg/well) with the various ECM glycoproteins. T cell adhesion was measured 30 min later.
as §1
Ile-Val-Leu, Arg-Met-Leu-Thr (SEQ ID NO:2) and […](SEQ ID NO:1) inhibit T cell adhesion to LN, CO-IV and FN. The next experiment was designed and performed to verify that the three IL-2-derived peptides indeed affect T cell interactions with ECM glycoproteins other than FN. […] The treated cells were then added to microtiter wells coated with CO-IV, LN, and FN.

human T cells [4] = test: PHA- or IL-2-mediated T cell proliferation; assay type: cell-based; settings: peptide 1 to 100 pg/ml
Method: The in vitro bioassays (a) to (e) are well-known in the art. Thus, for example, assays (a), (b) and (e) may be carried out as described in the section Materials and Methods hereinafter. […] The IL-2-derived peptides or their derivatives are added to the culture wells (different amounts, 10 microliters) for the entire period of the assay. [^3H]-Thymidine is added to the microtiter 96 U-form well plates 18 h before harvesting the cultures on day 3 onto glass fiber filters and counted by liquid scintillation counter. Mean CPM and SD from quadriplicate culture are then presented.

human T cells [5] = test: T cell chemotaxis through FN-coated polycarbonate membranes; assay type: cell-based; settings: peptide 1 pg/ml, FN-coated membrane
Method: T cell migration towards the chemotactic sources was assessed after 2 hr. One experiment representative of four.
Chemotaxis assays. T cell chemotaxis was performed and analyzed as previously described (Ben-Baruch et al., 1997). Briefly, the migration of human T cells (0.5×10^6 cells in adhesion medium/well) was examined in a 48-well chemotaxis micro-chamber (Neuro-Probe Inc., Cabin John, M D). The two compartments of the micro-chambers were separated by a FN-coated polycarbonate filter (5 μm pore size; Osmonics Protein Products, Livemore, Calif.). […] After incubation (120 min, 37° C., in a humidified, 7.5% CO2 atmosphere); the filters were removed, fixed, and stained with a Diff-Quik staining kit Dade, Düdingen, Switzerland). The number of migrating T cells in five high-power fields (under 500× magnification; WILD Microscope, Heerbrugg, Switzerland) was evaluated. For each group, the results are expressed as the mean number of cells in one high-power field.
Immune cell migration is the outcome of a subtle biological equilibrium existing between adhesion and detachment events. Lymphocyte adhesion to the subendothelial ECM and subsequent migration are two active processes that can overlap, but are not mutually dependent events. Adhesion and migration may depend on the ability of the T cells to continuously integrate different pro- and anti-adhesive signals via their versatile receptors for ECM, chemokines, cytokines, and possibly, also antigenic moieties.

human T cells [6] = test: Secretion of TNF-α and IFN-γ from proliferating T cells; assay type: cell-based; settings: peptide 1 to 100 pg/ml; not shown

| Compound | IL-8 secretion Average O.D. (HT-29 cells) | IL-8 secretion % inhibition (HT-29 cells) [%] | other results |
| --- | --- | --- | --- |
| Arg-Met-Leu-Thr-NH2 (RMLT-NH2) [pep42] | 226 ± 28.3 | 63 | – |
| Arg-Trp-Ile-Thr [pep20] | 191 ± 4.9 | 71 | – |
| Ile-Val-Ala [pep9] | 100 ± 9.9 | 93 | – |
| Glu-Phe-Leu-Asn [pep21] | 195 ± 14.1 | 70 | – |
| Arg-Val-Leu-Thr (RVLT) [pep41] | 132 ± 17.0 | 85 | – |
| Arg-Met-Ala-Thr (RMAT) [pep38] | 157 ± 1.4 | 79 | – |
| Ala-Met-Leu-Thr (AMLT) [pep36] | 201 ± 17.7 | 69 | – |
| EFLARWIT [pep27] | 309 ± 18.4 | 43 | – |
| EFLNRWIA [pep32] | 80 ± 24.0 | 98 | – |
| EALNRWIT [pep24] | 187 ± 16.3 | 72 | – |
| EFLNRWAT [pep31] | 112 ± 18.4 | 90 | – |
| EFLNRWITFCQS [pep18] | 162 ± 12.0 | 78 | – |
| EFLNRWITFC [pep16] | 126 ± 7.1 | 87 | – |
| NINVIVL [pep4] | 34 ± 3.5 | 109 | – |
| PKLTRMLT [pep43] | 57 ± 12.7 | 103 | – |
| Asn-Val-Ile-Val-Leu (NVIVL) [pep6] | 100 ± 14.8 | 93 | – |
| Arg-Ala-Leu-Thr (RALT) [pep37] | 222 ± 24.0 | 64 | – |
| Arg-Met-Leu-Ala (RMLA) [pep39] | 160 ± 21.9 | 79 | – |
| EFLNAWIT [pep28] | 120 ± 8.5 | 88 | – |
| Thr-Leu-Met-Arg (TLMR) [reference compound] | – | – | inhibition of adhesion of IL-2-activated T cells to FN (human T cells [1]; IL-2 10 U/ml): none of these peptides, tested in a broad range of dosages, interfere with T cell adhesion |

| Compound | IL-8 secretion Average O.D. (HT-29 cells) | IL-8 secretion % inhibition (HT-29 cells) [%] | other results |
| --- | --- | --- | --- |
| ATIVEFLNRWIT [pep17] | 150 ± 6.4 | 81 | – |
| RMLTFKFY [pep44] | 307 ± 29.7 | 43 | – |
| Leu-Val-Ile [reference compound] | – | – | inhibition of adhesion of IL-2-activated T cells to FN (human T cells [1]; IL-2 10 U/ml): none of these peptides, tested in a broad range of dosages, interfere with T cell adhesion |
| EFLNEWIT [pep29] | 139 ± 19.8 | 84 | – |
| LNRWIT [pep19] | 152 ± 30.4 | 81 | – |
| KFLNRWIT [pep23] | 36 ± 14.1 | 108 | – |
| AFLNRWIT [pep22] | 158 ± 4.2 | 79 | – |
| CCCCCCCCCCCCCC(=O)O[C@@H]1[C@@H](C)[C@@]2(O)[C@@H](C=C(CO)C[C@]3(O)C(=O)C(C)=C[C@@H]23)[C@@H]2C(C)(C)[C@]12OC(C)=O [PMA] | – | – | T cells adhered to immobilized ECM and ECM glycoproteins (human T cells [2]): 45±4.4% |
| Glu-Phe-Leu-Asn-Arg-Trp-Ile-Thr-NH2 (EFLNRWIT-NH2) [pep33] | 73 ± 5.7 | 100 | – |
| Ile-Ala-Leu [pep8] | 35 ± 4.9 | 109 | – |
| IVLELKG [pep5] | 35 ± 0.7 | 109 | – |
| EFLNRAIT [pep30] | 123 ± 9.2 | 88 | – |
| IVEFLNRWIT [pep15] | 33 ± 0.7 | 109 | – |
| Arg-Met-Leu-Thr (RMLT; not fully specified (C-terminus); printed as Arg-Met-Leu-Thr) [pep3] | 44 ± 0.7 | 107 | inhibition of T cell adhesion to CO-IV, LN and FN (human T cells [3]): inhibit T cell adhesion to the three major cell-adhesive glycoproteins of the ECM; interference with PHA- or IL-2-mediated proliferative responses (human T cells [4]): none of them, at 1 to 100 pg/ml, interfered with either PHA- or IL-2-mediated proliferative responses; inhibition of T cell migration toward IL-2 (human T cells [5]; IL-2 10 U/ml in lower compartment, p<0.01): ~90%; inhibition of T cell chemotaxis toward MIP-1β (human T cells [5]; MIP-1β in lower compartment): 60%; concentration giving maximum inhibition of IL-2-induced T cell adhesion to FN (human T cells [1]; IL-2 10 U/ml): about 0.1 pg/ml; concentration giving maximum inhibition of IL-2-induced T cell adhesion to FN (molar) (human T cells [1]; IL-2 10 U/ml): ~0.2 pM; inhibition of adhesion of IL-2-activated T cells to FN (human T cells [1]; IL-2 10 U/ml): inhibited, in a dose-dependent manner; anti-adhesive effect after removal of peptide prior to IL-2 activation (human T cells [1]; T cells pre-treated 1 pg/ml, washed, then IL-2 and FN-coated wells): most of the anti-adhesive effects of the three peptides persevered; relative potency as inhibitor of IL-2-induced T cell adhesion to FN (human T cells [1]; among the three IL-2 peptides): most potent inhibitor; inhibition of secretion of TNF-α and IFN-γ from proliferating T cells (human T cells [6]): nor did these peptides inhibit the secretion of TNF-α and IFN-γ |
| EFANRWIT [pep26] | 156 ± 27.6 | 80 | – |
| TIWRNLFE [reference compound] | – | – | inhibition of adhesion of IL-2-activated T cells to FN (human T cells [1]; IL-2 10 U/ml): none of these peptides, tested in a broad range of dosages, interfere with T cell adhesion |
| Glu-Val-Leu [pep10] | 125 ± 19.1 | 87 | – |
| Lys-Met-Leu-Thr (KMLT) [pep40] | 179 ± 17.7 | 74 | – |
| EVLNRWIT [pep25] | 172 ± 2.8 | 76 | – |
| Ala-Val-Leu [pep7] | 170 ± 8.5 | 76 | – |
